In the first test the target is T1, 3-hydroxy-3-methylglutaryl-coenzyme A reductase (Homo sapiens, UniProt P04035).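 Also: enzyme inhibition assay of HMG-CoA reductase using radiolabeled [14C]HMG-CoA as substrate; in other assays of this panel Not Active means under 50% inhibition at 10 µM.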
T1 sequence (P04035 whole entry): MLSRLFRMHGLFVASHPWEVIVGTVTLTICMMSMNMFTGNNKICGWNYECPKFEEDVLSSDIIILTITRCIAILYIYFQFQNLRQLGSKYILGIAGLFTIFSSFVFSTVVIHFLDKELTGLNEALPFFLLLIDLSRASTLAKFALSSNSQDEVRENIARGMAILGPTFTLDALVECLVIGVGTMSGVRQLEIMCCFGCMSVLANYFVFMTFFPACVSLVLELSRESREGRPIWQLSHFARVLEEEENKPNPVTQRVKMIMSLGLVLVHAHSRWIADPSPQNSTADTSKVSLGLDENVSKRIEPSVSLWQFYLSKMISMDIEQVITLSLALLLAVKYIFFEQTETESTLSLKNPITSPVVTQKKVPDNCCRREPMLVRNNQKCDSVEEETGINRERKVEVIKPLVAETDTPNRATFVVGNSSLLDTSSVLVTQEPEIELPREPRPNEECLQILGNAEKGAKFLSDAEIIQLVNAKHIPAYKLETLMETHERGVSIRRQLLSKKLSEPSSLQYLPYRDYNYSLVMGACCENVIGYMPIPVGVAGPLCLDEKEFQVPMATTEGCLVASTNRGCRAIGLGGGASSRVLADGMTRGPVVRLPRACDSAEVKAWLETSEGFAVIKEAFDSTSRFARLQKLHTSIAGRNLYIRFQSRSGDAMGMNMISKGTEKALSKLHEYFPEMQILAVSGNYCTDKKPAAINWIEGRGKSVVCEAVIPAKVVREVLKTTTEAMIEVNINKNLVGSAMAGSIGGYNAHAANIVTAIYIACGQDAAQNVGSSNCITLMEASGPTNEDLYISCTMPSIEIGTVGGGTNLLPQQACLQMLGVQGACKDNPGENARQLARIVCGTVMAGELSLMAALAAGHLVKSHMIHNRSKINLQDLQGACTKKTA
Experiment: not given
Also on record: species or system Escherichia coli.
Conditions: not given
Melanocortin receptor 3, sequence (P41968 whole entry): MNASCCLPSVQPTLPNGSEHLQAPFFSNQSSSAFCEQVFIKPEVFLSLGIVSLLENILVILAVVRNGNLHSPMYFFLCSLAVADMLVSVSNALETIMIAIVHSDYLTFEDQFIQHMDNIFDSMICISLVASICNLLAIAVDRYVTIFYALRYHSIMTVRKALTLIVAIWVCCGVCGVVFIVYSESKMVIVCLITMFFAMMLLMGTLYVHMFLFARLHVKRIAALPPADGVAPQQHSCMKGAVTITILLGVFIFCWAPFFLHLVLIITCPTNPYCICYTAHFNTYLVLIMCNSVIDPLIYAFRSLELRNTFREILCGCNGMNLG
Turning to `CNC(=O)Oc1ccc2c(c1)[C@]1(C)CCN(C)[C@@H]1N2C` [PHYSOSTIGMINE], the IC50 entry was “Not Active”.
The same measure, in the same setting: in the case of `Nc1nc2c(ncn2COC(CO)CO)c(=O)[nH]1` [GANCICLOVIR] it was “Not Active”; in that of `CC1=Nc2ccc(Cl)cc2S(=O)(=O)N1` [DIAZOXIDE], “Not Active”.

The target in another test is Platelet-activating factor receptor (Homo sapiens, UniProt P25105). In words: biochemical. The format is tissue-based. The conditions noted are these: platelet. Also: in other assays of this panel Not Active means under 50% inhibition at 10 µM.
Platelet-activating factor receptor, sequence (P25105 whole entry): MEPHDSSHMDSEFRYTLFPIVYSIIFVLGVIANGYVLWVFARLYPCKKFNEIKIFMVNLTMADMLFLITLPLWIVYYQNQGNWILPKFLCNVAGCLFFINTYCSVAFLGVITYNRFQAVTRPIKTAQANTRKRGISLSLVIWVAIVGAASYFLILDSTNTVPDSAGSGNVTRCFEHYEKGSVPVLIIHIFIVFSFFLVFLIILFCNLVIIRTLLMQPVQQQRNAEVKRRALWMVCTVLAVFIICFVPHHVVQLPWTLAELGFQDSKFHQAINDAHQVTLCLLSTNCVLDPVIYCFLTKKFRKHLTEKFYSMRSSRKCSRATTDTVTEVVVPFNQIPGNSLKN
As to `CNC(=O)Oc1ccc2c(c1)[C@]1(C)CCN(C)[C@@H]1N2C` [PHYSOSTIGMINE], the IC50 entry is “Not Active”.
On the same count and under the same terms, the same measure for `Nc1nc2c(ncn2COC(CO)CO)c(=O)[nH]1` [GANCICLOVIR]: “Not Active”; for `CC1=Nc2ccc(Cl)cc2S(=O)(=O)N1` [DIAZOXIDE]: “Not Active”.

The target in another test is D(3) dopamine receptor (Homo sapiens, UniProt P35462). The test is described as follows: DRUGMATRIX: Dopamine D3 radioligand binding (ligand: [3H] Spiperone). The format is cell membranes, CHO, Membrane. The conditions noted are these: cho.
D(3) dopamine receptor, sequence (P35462 whole entry): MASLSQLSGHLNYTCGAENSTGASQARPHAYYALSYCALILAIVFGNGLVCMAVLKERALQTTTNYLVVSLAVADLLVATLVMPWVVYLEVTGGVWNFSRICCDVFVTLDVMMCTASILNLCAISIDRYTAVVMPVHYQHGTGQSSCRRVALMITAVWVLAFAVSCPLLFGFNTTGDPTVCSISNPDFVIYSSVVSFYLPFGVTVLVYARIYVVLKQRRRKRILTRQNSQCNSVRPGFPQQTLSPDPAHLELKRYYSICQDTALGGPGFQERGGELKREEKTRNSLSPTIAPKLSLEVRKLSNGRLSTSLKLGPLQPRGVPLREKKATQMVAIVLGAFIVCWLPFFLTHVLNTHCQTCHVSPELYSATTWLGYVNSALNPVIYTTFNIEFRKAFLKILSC
`CNC(=O)Oc1ccc2c(c1)[C@]1(C)CCN(C)[C@@H]1N2C` [PHYSOSTIGMINE]: the IC50 result is “Not Active”.
On the same count and under the same terms, the same measure for `Nc1nc2c(ncn2COC(CO)CO)c(=O)[nH]1` [GANCICLOVIR]: “Not Active”; for `CC1=Nc2ccc(Cl)cc2S(=O)(=O)N1` [DIAZOXIDE]: “Not Active”.

Tested on in another test: not listed separately
In words: DRUGMATRIX: Glutamate, NMDA, Phencyclidine radioligand binding (ligand: [3H] TCP). The format is cell membranes, Rattus norvegicus, Wistar, Cerebral cortex, Membrane. To be noted: Not Active = under 50% inhibition at 10 µM.
As to `CNC(=O)Oc1ccc2c(c1)[C@]1(C)CCN(C)[C@@H]1N2C` [PHYSOSTIGMINE], the IC50 entry is recorded as “Not Active” and the Ki result is reported as “Not Active”.
Regarding `Nc1nc2c(ncn2COC(CO)CO)c(=O)[nH]1` [GANCICLOVIR], the IC50 entry was “Not Active” and the Ki entry was “Not Active”.
Consider `CC1=Nc2ccc(Cl)cc2S(=O)(=O)N1` [DIAZOXIDE], for which the IC50 result is recorded as “Not Active” and the Ki entry is listed as “Not Active”.

Tested on in another test: not listed separately
In words: DRUGMATRIX: Glutamate, NMDA, Agonism radioligand binding (ligand: [3H] CGP-39653). The format is cell membranes, Rattus norvegicus, Wistar, Cerebral cortex, Membrane. To be noted: Not Active = under 50% inhibition at 10 µM.
Consider `CNC(=O)Oc1ccc2c(c1)[C@]1(C)CCN(C)[C@@H]1N2C` [PHYSOSTIGMINE], for which the IC50 entry is recorded as “Not Active” and the Ki result is listed as “Not Active”.
As for `Nc1nc2c(ncn2COC(CO)CO)c(=O)[nH]1` [GANCICLOVIR], the IC50 entry was “Not Active” and the Ki entry was “Not Active”.
On to `CC1=Nc2ccc(Cl)cc2S(=O)(=O)N1` [DIAZOXIDE], for which the IC50 result was “Not Active” and the Ki entry is “Not Active”.

The target of another test is T2, Interstitial collagenase (Homo sapiens, UniProt P03956).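 Also: MMP-1 enzyme inhibition assay using a peptide substrate; in other assays of this panel Not Active means under 50% inhibition at 10 µM.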
T2 sequence (P03956 whole entry): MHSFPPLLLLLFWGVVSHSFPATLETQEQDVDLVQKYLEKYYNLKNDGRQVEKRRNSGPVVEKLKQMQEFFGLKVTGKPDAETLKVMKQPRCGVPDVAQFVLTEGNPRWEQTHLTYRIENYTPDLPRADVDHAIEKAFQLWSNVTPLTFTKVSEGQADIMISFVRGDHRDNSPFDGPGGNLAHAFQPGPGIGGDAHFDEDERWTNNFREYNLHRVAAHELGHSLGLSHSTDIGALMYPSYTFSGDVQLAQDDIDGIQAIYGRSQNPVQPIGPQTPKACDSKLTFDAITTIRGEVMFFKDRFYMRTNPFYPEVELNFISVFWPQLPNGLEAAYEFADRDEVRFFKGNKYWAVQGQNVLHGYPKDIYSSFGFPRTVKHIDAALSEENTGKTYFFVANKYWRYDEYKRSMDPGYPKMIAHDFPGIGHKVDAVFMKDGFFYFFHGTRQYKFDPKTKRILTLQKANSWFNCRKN
Experiment: not given
In kind it is tissue-based, Rheumatoid synovial fibroblasts.
Conditions: not given
With `CNC(=O)Oc1ccc2c(c1)[C@]1(C)CCN(C)[C@@H]1N2C` [PHYSOSTIGMINE], the IC50 entry was “Not Active”.
On the same count and under the same terms, the same measure for `Nc1nc2c(ncn2COC(CO)CO)c(=O)[nH]1` [GANCICLOVIR]: “Not Active”.
On the same count and under the same terms, the same measure for `CC1=Nc2ccc(Cl)cc2S(=O)(=O)N1` [DIAZOXIDE]: “Not Active”.

The target of the next test is T3, Adenosine receptor A1 (Homo sapiens, UniProt P30542).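 Also: radioligand binding assay at the adenosine A1 receptor, with DPCPX serving as the labelled ligand; in other assays of this panel Not Active means under 50% inhibition at 10 µM.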
T3 sequence (P30542 whole entry): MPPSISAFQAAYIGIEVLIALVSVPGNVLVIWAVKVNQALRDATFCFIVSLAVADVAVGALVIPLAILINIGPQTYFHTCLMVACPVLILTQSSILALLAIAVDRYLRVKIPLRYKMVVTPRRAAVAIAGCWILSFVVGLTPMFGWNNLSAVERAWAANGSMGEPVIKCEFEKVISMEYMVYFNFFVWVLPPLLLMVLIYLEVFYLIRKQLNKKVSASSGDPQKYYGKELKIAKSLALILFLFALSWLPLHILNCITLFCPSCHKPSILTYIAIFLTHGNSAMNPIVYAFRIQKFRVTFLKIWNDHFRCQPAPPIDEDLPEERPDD
Experiment: not given
In kind it is cell membranes, CHO, Membrane. To be noted: cho.
Consider `CNC(=O)Oc1ccc2c(c1)[C@]1(C)CCN(C)[C@@H]1N2C` [PHYSOSTIGMINE], for which the IC50 entry is “Not Active”.
The same measure, in the same setting: in the case of `Nc1nc2c(ncn2COC(CO)CO)c(=O)[nH]1` [GANCICLOVIR] it was “Not Active”.
On to `CC1=Nc2ccc(Cl)cc2S(=O)(=O)N1` [DIAZOXIDE], for which the IC50 entry was “Not Active”.

Tested on in the next test: not listed separately
In words: DRUGMATRIX: Calcium Channel Type L, Phenylalkylamine radioligand binding (ligand: [3H] (-)-Desmethoxyverapamil (D-888)). The conditions noted are these: Not Active = under 50% inhibition at 10 µM. In kind it is cell membranes, Rattus norvegicus, Wistar, Brain, Membrane.
As for `CNC(=O)Oc1ccc2c(c1)[C@]1(C)CCN(C)[C@@H]1N2C` [PHYSOSTIGMINE], the IC50 result was “Not Active” and the Ki result was “Not Active”.
Regarding `Nc1nc2c(ncn2COC(CO)CO)c(=O)[nH]1` [GANCICLOVIR], the IC50 entry is “Not Active” and the Ki result was “Not Active”.
Consider `CC1=Nc2ccc(Cl)cc2S(=O)(=O)N1` [DIAZOXIDE], for which the IC50 entry is recorded as “Not Active” and the Ki entry is reported as “Not Active”.

In a further test the target is Mitogen-activated protein kinase 1 (Homo sapiens, UniProt P28482). In words: DRUGMATRIX: Protein Serine/Threonine Kinase, ERK2 enzyme inhibition (substrate: Myelin Basic Protein). To be noted: Not Active = under 50% inhibition at 10 µM. Also on record: species or system Escherichia coli.
Mitogen-activated protein kinase 1, sequence (P28482 whole entry): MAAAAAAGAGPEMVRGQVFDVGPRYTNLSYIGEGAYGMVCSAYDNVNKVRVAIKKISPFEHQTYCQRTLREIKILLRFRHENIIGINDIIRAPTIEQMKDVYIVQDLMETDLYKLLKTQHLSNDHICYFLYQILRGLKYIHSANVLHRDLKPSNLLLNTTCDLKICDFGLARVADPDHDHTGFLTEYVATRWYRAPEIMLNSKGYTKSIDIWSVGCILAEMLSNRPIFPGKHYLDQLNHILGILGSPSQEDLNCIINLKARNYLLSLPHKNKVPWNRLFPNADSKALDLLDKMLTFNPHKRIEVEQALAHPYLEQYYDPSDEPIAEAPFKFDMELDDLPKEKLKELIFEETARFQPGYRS
Turning to `CNC(=O)Oc1ccc2c(c1)[C@]1(C)CCN(C)[C@@H]1N2C` [PHYSOSTIGMINE], the IC50 result is “Not Active”.
With `Nc1nc2c(ncn2COC(CO)CO)c(=O)[nH]1` [GANCICLOVIR], the IC50 entry was “Not Active”.
On the same count and under the same terms, the same measure for `CC1=Nc2ccc(Cl)cc2S(=O)(=O)N1` [DIAZOXIDE]: “Not Active”.

The next test deals with Prostaglandin G/H synthase 1 (Homo sapiens, UniProt P23219). In words: biochemical. The format is tissue-based, Platelet. To be noted: platelet.
Prostaglandin G/H synthase 1, sequence (P23219 whole entry): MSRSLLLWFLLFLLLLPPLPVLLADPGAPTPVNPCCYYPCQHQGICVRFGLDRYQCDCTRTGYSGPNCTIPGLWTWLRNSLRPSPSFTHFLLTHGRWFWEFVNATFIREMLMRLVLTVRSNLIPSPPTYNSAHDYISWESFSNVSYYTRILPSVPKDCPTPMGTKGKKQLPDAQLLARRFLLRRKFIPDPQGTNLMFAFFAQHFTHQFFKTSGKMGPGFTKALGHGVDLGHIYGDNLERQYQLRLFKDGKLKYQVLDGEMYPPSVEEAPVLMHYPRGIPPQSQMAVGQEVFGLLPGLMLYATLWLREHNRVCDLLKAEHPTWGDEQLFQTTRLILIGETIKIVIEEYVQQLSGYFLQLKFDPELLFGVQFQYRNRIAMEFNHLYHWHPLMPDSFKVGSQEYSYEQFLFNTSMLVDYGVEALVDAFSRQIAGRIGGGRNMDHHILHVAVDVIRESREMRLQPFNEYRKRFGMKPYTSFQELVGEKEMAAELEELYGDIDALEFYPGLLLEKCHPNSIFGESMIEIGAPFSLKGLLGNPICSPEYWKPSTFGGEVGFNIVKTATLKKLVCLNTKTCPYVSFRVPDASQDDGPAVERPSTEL
Consider `CNC(=O)Oc1ccc2c(c1)[C@]1(C)CCN(C)[C@@H]1N2C` [PHYSOSTIGMINE], for which the IC50 result is “Not Active”.
For `Nc1nc2c(ncn2COC(CO)CO)c(=O)[nH]1` [GANCICLOVIR], the IC50 entry is reported as “Not Active”.
Same read-out and setting: the same measure for `CC1=Nc2ccc(Cl)cc2S(=O)(=O)N1` [DIAZOXIDE]: “Not Active”.

A further test addresses T4, Alpha-1D adrenergic receptor (Homo sapiens, UniProt P25100).
T4 sequence (P25100 whole entry): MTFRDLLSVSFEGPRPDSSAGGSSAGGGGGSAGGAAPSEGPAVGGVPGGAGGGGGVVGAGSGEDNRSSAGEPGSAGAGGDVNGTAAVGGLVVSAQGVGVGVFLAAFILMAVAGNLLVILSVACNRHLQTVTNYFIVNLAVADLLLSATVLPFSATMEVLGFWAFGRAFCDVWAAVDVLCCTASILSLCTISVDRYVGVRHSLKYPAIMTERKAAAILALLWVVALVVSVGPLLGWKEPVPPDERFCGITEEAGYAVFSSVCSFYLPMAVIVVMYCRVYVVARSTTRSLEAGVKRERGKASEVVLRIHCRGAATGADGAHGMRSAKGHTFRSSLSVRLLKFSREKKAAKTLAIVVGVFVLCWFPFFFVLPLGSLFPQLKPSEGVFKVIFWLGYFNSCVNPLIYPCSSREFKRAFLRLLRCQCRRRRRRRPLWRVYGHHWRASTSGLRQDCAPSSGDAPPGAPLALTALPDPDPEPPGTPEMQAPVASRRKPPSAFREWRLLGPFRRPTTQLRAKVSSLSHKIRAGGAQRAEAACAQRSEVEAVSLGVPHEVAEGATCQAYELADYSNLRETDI
Experiment: not given
In kind it is cell membranes, HEK293, Membrane. To be noted: hek293.
Consider `CNC(=O)Oc1ccc2c(c1)[C@]1(C)CCN(C)[C@@H]1N2C` [PHYSOSTIGMINE], for which the IC50 result is given as “Not Active”.
As to `Nc1nc2c(ncn2COC(CO)CO)c(=O)[nH]1` [GANCICLOVIR], the IC50 entry is “Not Active”.
On the same count and under the same terms, in the case of `CC1=Nc2ccc(Cl)cc2S(=O)(=O)N1` [DIAZOXIDE] it was “Not Active”.

Tested on in the next test: not listed separately
The test is described as follows: DRUGMATRIX: Phosphodiesterase PDE4 enzyme inhibition (substrate: [3H]cAMP + cAMP). The conditions noted are these: u-937; Not Active = under 50% inhibition at 10 µM.
In the case of `CNC(=O)Oc1ccc2c(c1)[C@]1(C)CCN(C)[C@@H]1N2C` [PHYSOSTIGMINE], the IC50 entry was “Not Active” and the Ki entry is “Not Active”.
For `Nc1nc2c(ncn2COC(CO)CO)c(=O)[nH]1` [GANCICLOVIR], the IC50 entry was “Not Active” and the Ki result is given as “Not Active”.
As for `CC1=Nc2ccc(Cl)cc2S(=O)(=O)N1` [DIAZOXIDE], the IC50 result was “Not Active” and the Ki entry is listed as “Not Active”.

The next test concerns the target Melanocortin receptor 3 (Homo sapiens, UniProt P41968). Also: in other assays of this panel Not Active means under 50% inhibition at 10 µM.
Experiment: not given
In kind it is cell membranes, Membrane. The conditions noted are these: hek293.
Consider `CNC(=O)Oc1ccc2c(c1)[C@]1(C)CCN(C)[C@@H]1N2C` [PHYSOSTIGMINE], for which the IC50 result is “Not Active”.
As for `Nc1nc2c(ncn2COC(CO)CO)c(=O)[nH]1` [GANCICLOVIR], the IC50 entry is given as “Not Active”.
Same read-out and setting: the same measure for `CC1=Nc2ccc(Cl)cc2S(=O)(=O)N1` [DIAZOXIDE]: “Not Active”.

Values taken from ChEMBL document CHEMBL1909046, “DrugMatrix in vitro pharmacology data”.
